Broadly, the IC50 is the point on the concentration scale where inhibition reaches its midpoint. Read a high IC50 as lower potency. In general, EC50 refers to the concentration that produces a half-maximal response.

Experiment [1] concerns the target T1, Programmed cell death protein 1/Programmed cell death 1 ligand 1 (Homo sapiens, UniProt Q9NZQ7). Briefly: Inhibition of human […] interaction incubated for 15 mins by TR-FRET assay. The format is protein-complex assay. On the technique in general: In TR-FRET formats the signal depends on donor and acceptor labels being close together.
The target of experiment [2] is T1, Programmed cell death protein 1/Programmed cell death 1 ligand 1. Briefly: Inhibition of human PD-1/PD-L1 interaction incubated for 24 hrs by HTRF assay. The format is protein-complex assay.
Experiment [3] has the same target. Kind of experiment: Inhibition of PD-1/PD-L1 (unknown origin) interaction incubated for 1 hr by HTRF assay. The format is protein-complex assay.
Experiment [4] shares this target. Briefly: Inhibition of PD-1/PD-L1 interaction (unknown origin) by AlphaLISA assay relative to control. The format is protein-complex assay.
Experiment [5] shares this target. Kind of experiment: Inhibition of PD-1/PD-L1 (unknown origin) interaction incubated for 2 hr by TR-FRET assay. It is filed as protein-complex assay.
The test system of the next experiment is Jurkat. Kind of experiment: Induction of T cell activation in human Jurkat T cells overexpressing PD-1 co-cultured with Chinese hamster CHO cells overexpressing PD-L1 assessed as increase in luciferase activity incubated for 6 hrs by Bio-GloTM reagent based immune checkpoint blockade assay. The format is functional.
The target in experiment [6] is T1, Programmed cell death protein 1/Programmed cell death 1 ligand 1. Kind of experiment: Inhibition of PD-1/PD-L1 interaction (unknown origin) by TR-FRET assay. It is filed as protein-complex assay.
For experiment [7], the target named is Programmed cell death 1 ligand 1 (Homo sapiens) (UniProt Q9NZQ7). Briefly: Binding affinity to PD-L1 (unknown origin) assessed as Gibbs free energy change.
Programmed cell death 1 ligand 1 (Homo sapiens), sequence (Q9NZQ7 whole entry): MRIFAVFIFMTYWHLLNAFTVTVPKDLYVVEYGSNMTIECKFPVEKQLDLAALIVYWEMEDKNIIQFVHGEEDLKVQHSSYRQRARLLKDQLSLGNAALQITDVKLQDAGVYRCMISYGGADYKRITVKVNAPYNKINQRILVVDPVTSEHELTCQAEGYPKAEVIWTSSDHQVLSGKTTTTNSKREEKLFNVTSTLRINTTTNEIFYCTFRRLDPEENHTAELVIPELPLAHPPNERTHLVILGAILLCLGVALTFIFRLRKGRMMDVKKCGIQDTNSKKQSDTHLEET
Experiment [8] deals with T1, Programmed cell death protein 1/Programmed cell death 1 ligand 1. Briefly: Inhibition of PD-1/PD-L1 (unknown origin) protein-protein interaction incubated for 15 mins by TR-FRET assay. The format is protein-complex assay.
The target is the same in experiment [9]. Kind of experiment: Inhibition of PD-1 (unknown origin)/PD-L1 (unknown origin) interaction by HTRF binding assay. The format is protein-complex assay.
The target is the same in experiment [10]. Kind of experiment: Inhibition of PD-1/PD-L1 (unknown origin) interaction. The format is protein-complex assay.

T1 sequence (Q15116 whole entry): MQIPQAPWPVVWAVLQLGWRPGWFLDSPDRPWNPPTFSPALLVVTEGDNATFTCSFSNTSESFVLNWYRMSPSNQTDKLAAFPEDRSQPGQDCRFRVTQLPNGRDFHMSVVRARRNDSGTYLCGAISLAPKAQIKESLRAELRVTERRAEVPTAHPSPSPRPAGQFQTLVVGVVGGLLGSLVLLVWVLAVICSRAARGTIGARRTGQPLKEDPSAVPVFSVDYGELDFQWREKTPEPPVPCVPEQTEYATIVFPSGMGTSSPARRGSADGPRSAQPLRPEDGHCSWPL
T1 sequence (Q9NZQ7 whole entry): as the sequence (Q9NZQ7 whole entry) above

For `CS(=O)(=O)c1cncc(CCc2nc(OCc3cccc(-c4cccc(-c5ccc6c(c5)C[C@H](N)C6)c4Cl)c3Cl)c(Br)cc2CN2CCCC[C@@H]2C(=O)O)c1`, the IC50 in [1] was 0.09 nM. `Cc1c(/C=C/c2ccc(CNC(C)(CO)C(=O)O)cc2C(F)(F)F)cccc1-c1ccc2c(c1)OCCO2` (centres undefined) came in with an IC50 in experiment [2] of 18 nM. In experiment [3], `Cc1c(COc2cc(OCc3ccc(OC(F)(F)F)nc3)c(N3CCCCC3C(=O)O)cc2Cl)cccc1-c1ccccc1` (centres undefined) gave a concentration for half-maximal inhibition (IC50) of 56.6 nM.

Take `Cc1c(COc2cc(OCc3cncc(C#N)c3)c(CNC(C)(C)C(=O)O)cc2Cl)cccc1-c1ccccc1`: the IC50 in experiment [4] was determined as 2.7 nM.

On to `Cn1nc(Nc2cccc(-c3ccc4c(c3)OCCO4)c2Cl)c2ccc(CN[C@H](CO)C(=O)O)cc21`, for which the IC50 in experiment [5] was determined as 9.6 nM. Moreover, the EC50 in the experiment on Jurkat was determined as 1610 nM. For the molecule `Cc1c(COc2cc(OCc3cccc(C#N)c3)c(CNC(CO)(CO)CO)cc2Cl)cccc1-c1cccc(-c2cc(C(=O)N3CC[C@@H](O)C3)no2)c1`, in experiment [6], the IC50 came out at 23 nM. With `Cc1c(COc2cc(OCc3cccc(C#N)c3)c(CN3C[C@H](O)C[C@@H]3C(=O)O)cc2Cl)cccc1-c1ccc2c(c1)OCCO2`, in experiment [7], the deltaG was -34 kcal/mol. Consider `Fc1cccc(-c2nccc(N[C@@H]3CO[C@@H]4[C@H]3OC[C@H]4NCc3ccccn3)n2)c1`, for which, in experiment [7], the deltaG is -32 kcal/mol.

In turn, `Cc1cc(/C=C/c2ccc3cc(N(C)C)ccc3[n+]2C)c(C)n1-c1ccccc1` gave an IC50 in experiment [8] of 29.7 nM. Consider `CC(C)OC(=O)[C@H](CO)NCc1cc(Cl)c(OCc2cccc(-c3ccccc3)c2Br)cc1OCc1cccnc1`, for which the IC50 in [9] worked out at 45.2 nM. Consider `O=C(O)[C@H](CO)NCc1cc(Cl)c(OCc2cccc(-c3ccccc3)c2Br)cc1OCc1cccnc1`, for which, in experiment [9], the IC50 worked out at 1.1 nM. `Cc1c(COc2cc(OCc3cncc(C#N)c3)c(CN(CCCN(C)C)CCS(=O)(=O)O)cc2Cl)cccc1-c1ccc2c(c1)OCCO2` gave an IC50 in [4] of 2.7 nM. For the molecule `O=C(O)[C@H](CO)NCc1ccc(Nc2nsc3c(-c4ccc5c(c4)OCCO5)cccc23)c(Br)c1`, in [10], half-maximal inhibition (IC50) required 5.7 nM.

The values above are taken from ChEMBL document CHEMBL5385973, “Progress in small-molecule inhibitors targeting PD-L1” (RSC Med Chem, 2024).
